Positions of bridges follow the written chain, without caps; N, C: chain ends. Residues, ends and D or L forms follow the SMILES beside them.
How the values were obtained:
Type in all cases: cell-based
Design in all cases: hIL-2Ra signal peptide (N); expressed in transfected cells
GPR55 [1] = target: T1, GPR55 (Homo sapiens, UniProt Q9Y2T6); test: Dynamic mass redistribution (DMR), concentration-response; settings: GPR55, data from single experiment (n = 1)
Outline: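 Doxycycline-induced (0.1 μg/ml) SNAP-tagged receptors in TREx 293 cells, equilibrated 90 min at 22°C in HEPES-buffered HBSS, pH 7.4, with 0.1% DMSO. Peptide-evoked optical wavelength shift recorded for 60 min at 22°C, buffer/solvent corrected and quantified as area under the curve. Mean ± SEM of at least 3 independent experiments.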

GPR55 [2] = target: T1, GPR55; test: Real-time receptor internalization (TR-FRET), concentration-response; settings: GPR55, data from single experiment (n = 1)
Outline: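 Doxycycline-induced (0.1 μg/ml) SNAP-tagged receptor cells had surface receptors labeled with 100 nM Lumi4-Tb for 1 h at 37°C, then 100 μM fluorescein-O-acetic acid for 5 min. Peptide-induced internalization was recorded by TR-FRET for 60 min at 37°C as donor/acceptor emission ratio. Area under the curve gave concentration-response curves; mean ± SEM, ≥3 independent experiments.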

GPR55 [3] = target: T1, GPR55; test: β-arrestin recruitment (Tango)

T1 sequence (Q9Y2T6 2-319 limits assumed): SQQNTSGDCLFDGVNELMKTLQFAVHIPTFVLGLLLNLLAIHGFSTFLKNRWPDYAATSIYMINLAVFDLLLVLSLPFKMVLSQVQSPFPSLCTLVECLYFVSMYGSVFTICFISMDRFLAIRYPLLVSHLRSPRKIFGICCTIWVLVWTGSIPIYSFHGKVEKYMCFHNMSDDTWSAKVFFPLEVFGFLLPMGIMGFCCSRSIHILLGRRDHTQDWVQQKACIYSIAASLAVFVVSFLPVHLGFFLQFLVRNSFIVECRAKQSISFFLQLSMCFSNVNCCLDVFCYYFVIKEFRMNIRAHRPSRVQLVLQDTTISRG

CC[C@H](C)[C@H](NC(=O)[C@@H](NC(=O)[C@H](Cc1c[nH]c2ccccc12)NC(=O)[C@H](CCC(=O)O)NC(=O)[C@H](CO)NC(=O)[C@@H](NC(=O)[C@H](CO)NC(=O)[C@@H]1CSSC[C@H](NC(=O)[C@H](CC(=O)O)NC(=O)[C@@H](N)CCC(=O)O)C(=O)N[C@@H](CCCCN)C(=O)N[C@@H](Cc2ccc(O)cc2)C(=O)N[C@@H]([C@@H](C)CC)C(=O)N[C@@H](C(C)C)C(=O)N[C@@H](C(C)C)C(=O)N[C@@H](CCC(=O)O)C(=O)N[C@@H](CCCCN)C(=O)N[C@@H](CCCCN)C(=O)N[C@@H](CC(=O)O)C(=O)N2CCC[C@H]2C(=O)N[C@@H](CCCCN)C(=O)N[C@@H](CCCCN)C(=O)N[C@@H]([C@@H](C)O)C(=O)N1)C(C)C)[C@@H](C)CC)C(=O)O [MSMB (91-114)] (H-EDCKYIVVEKKDPKKTCSVSEWII-OH; disulfide 3-17; N-terminus and C-terminus assumed)
Emax, DMR (AUC) (GPR55 [1]): 169875.0 | EC50 (GPR55 [1]; read-out: pEC50, DMR (AUC) (converted)): 224 nM | Emax, Internalization (AUC) (GPR55 [2]): 37.6 | EC50 (GPR55 [2]; read-out: pEC50, Internalization (AUC) (converted)): 2690 nM | Comment on response, Tango (fold over basal); Emax and pEC50 n.d. (GPR55 [3]): No response

From paper PMC6838683, “Discovery of Human Signaling Systems: Pairing Peptides to G Protein-Coupled Receptors” (Cell, 2019)
